Laboratory results as given in ChEMBL document CHEMBL4689842, “EUbOPEN Chemogenomics Library wave 1” (2021).

Columns and labels:
Format in all cases: toxicity, cell-based
U2OS = assay: Incucyte cell viability with U2OS; details: human, 10 µM, compound concentration 10 uM
HEK-293T = assay: Incucyte cell viability with HEK293T; details: human, 10 µM, compound concentration 10 uM
Fibroblast = assay: Incucyte cell viability with human fibroblast; details: 10 µM, compound concentration 10 uM
[1] = 6 h, replicate number 1, timepoint 6 hours
[2] = 6 h, replicate number 2, timepoint 6 hours
[3] = 12 h, replicate number 1, timepoint 12 hours
[4] = 12 h, replicate number 2, timepoint 12 hours
[5] = 18 h, replicate number 1, timepoint 18 hours
[6] = 24 h, replicate number 1, timepoint 24 hours
[7] = 24 h, replicate number 2, timepoint 24 hours
[8] = 0 h, replicate number 1, timepoint 0 hours
[9] = 18 h, replicate number 2, timepoint 18 hours
[10] = 0 h, replicate number 2, timepoint 0 hours

Measured: Growth Rate
Further: filed as whole numbers so only -1 and 0 and 1 occur.

Cc1cc(C(C)(C)C)c(O)c(C)c1CC1=NCCN1.Cl [OXYMETAZOLINE HYDROCHLORIDE]
0: U2OS; [1] | U2OS; [3] | U2OS; [5] | U2OS; [6] | HEK-293T; [8] | HEK-293T; [2] | HEK-293T; [4] | HEK-293T; [9] | HEK-293T; [7] | Fibroblast; [8] | Fibroblast; [7]
1: U2OS; [2] | U2OS; [4] | U2OS; [7] | HEK-293T; [1] | HEK-293T; [3] | HEK-293T; [5] | HEK-293T; [6] | Fibroblast; [2] | Fibroblast; [3] | Fibroblast; [5] | Fibroblast; [6]

CCOC(=O)c1cc2cc(-c3cc(C(=O)NCc4ccc(C(=O)O)cc4)nn3C)ccc2[nH]1 [BI 4394]
0: U2OS; [10] | U2OS; [5] | HEK-293T; [8] | HEK-293T; [5] | HEK-293T; [6] | Fibroblast; [10] | Fibroblast; [1] | Fibroblast; [4]
1: U2OS; [1] | U2OS; [3] | U2OS; [9] | U2OS; [6] | HEK-293T; [3] | HEK-293T; [9] | Fibroblast; [8] | Fibroblast; [3] | Fibroblast; [5] | Fibroblast; [6]

Cl.Clc1cccc(COc2cncc(N3CCNCC3)n2)c1
1: U2OS; [4] | U2OS; [5] | U2OS; [6] | HEK-293T; [10] | Fibroblast; [8] | Fibroblast; [1] | Fibroblast; [6]
0: U2OS; [2] | U2OS; [3] | HEK-293T; [1] | HEK-293T; [3] | HEK-293T; [5] | HEK-293T; [6] | Fibroblast; [2] | Fibroblast; [4] | Fibroblast; [9] | Fibroblast; [7]

Cc1cc(-n2nc(Cc3cc(F)cc(C(F)(F)F)c3)nc2C)ccc1C(N)=O [TP-024]
0: U2OS; [1] | U2OS; [3] | U2OS; [5] | U2OS; [6] | HEK-293T; [10] | HEK-293T; [1] | HEK-293T; [3] | HEK-293T; [5] | HEK-293T; [6] | Fibroblast; [8] | Fibroblast; [2] | Fibroblast; [4] | Fibroblast; [9] | Fibroblast; [7]
1: U2OS; [2] | U2OS; [4] | U2OS; [9] | U2OS; [7] | HEK-293T; [8] | Fibroblast; [10] | Fibroblast; [1] | Fibroblast; [3] | Fibroblast; [5] | Fibroblast; [6]

S=C=Nc1cccc(NC(=S)NCCCCNC(=S)Nc2cccc(N=C=S)c2)c1
0: U2OS; [8] | U2OS; [2] | U2OS; [4] | U2OS; [5] | U2OS; [6] | HEK-293T; [10] | HEK-293T; [1] | HEK-293T; [3] | HEK-293T; [5] | HEK-293T; [6] | Fibroblast; [8] | Fibroblast; [1] | Fibroblast; [3] | Fibroblast; [5] | Fibroblast; [6]
1: U2OS; [3] | HEK-293T; [2]

C[C@H](NC(=O)c1cnc2n1[C@](C)(Cc1ccc(C#N)cc1)C(=O)N2c1cc(Cl)c(F)c(Cl)c1)C(=O)NC1(c2ccccn2)CC1 [BI 1950]
0: U2OS; [8] | HEK-293T; [10] | HEK-293T; [1] | HEK-293T; [3] | HEK-293T; [5] | HEK-293T; [6] | Fibroblast; [8] | Fibroblast; [2] | Fibroblast; [4] | Fibroblast; [9] | Fibroblast; [7]
1: U2OS; [2] | U2OS; [3] | U2OS; [5] | U2OS; [6] | HEK-293T; [8] | Fibroblast; [10] | Fibroblast; [5] | Fibroblast; [6]

O=C(O)C1CN(Cc2ccc(OCc3ccc(Cl)c(Cl)c3)cc2)C1
0: U2OS; [8] | U2OS; [2] | U2OS; [4] | U2OS; [5] | U2OS; [7] | HEK-293T; [10] | HEK-293T; [1] | HEK-293T; [3] | HEK-293T; [5] | HEK-293T; [6] | Fibroblast; [1] | Fibroblast; [3] | Fibroblast; [5] | Fibroblast; [6]
1: U2OS; [3] | U2OS; [6] | Fibroblast; [8]

O=S1(=O)c2cccc3cccc(c23)N1CCCN1CCN(c2ccc(F)cc2)CC1 [FANANSERIN]
1: U2OS; [3] | U2OS; [5] | U2OS; [6] | Fibroblast; [1] | Fibroblast; [5] | Fibroblast; [6]
0: U2OS; [10] | HEK-293T; [10] | HEK-293T; [1] | HEK-293T; [3] | HEK-293T; [5] | HEK-293T; [6] | Fibroblast; [8] | Fibroblast; [2] | Fibroblast; [3] | Fibroblast; [9] | Fibroblast; [7]

C[C@H](NC[C@H](O)CP(=O)(O)CC1CCCCC1)c1ccc(Cl)c(Cl)c1.Cl
0: U2OS; [8] | U2OS; [2] | U2OS; [4] | U2OS; [7] | HEK-293T; [10] | HEK-293T; [1] | HEK-293T; [9] | Fibroblast; [8] | Fibroblast; [1] | Fibroblast; [5] | Fibroblast; [6]
1: U2OS; [3] | U2OS; [5] | U2OS; [6] | HEK-293T; [8] | HEK-293T; [2] | HEK-293T; [3] | HEK-293T; [5] | HEK-293T; [6] | Fibroblast; [3] | Fibroblast; [7]

Cc1noc([C@H]2C[C@@H](c3ccc(C(F)(F)F)cc3)CN(C(=O)N3CCS(=O)(=O)C3)C2)n1 [BAY-448]
0: U2OS; [8] | U2OS; [5] | U2OS; [6] | HEK-293T; [10] | HEK-293T; [1] | HEK-293T; [3] | HEK-293T; [5] | HEK-293T; [6] | Fibroblast; [8] | Fibroblast; [2] | Fibroblast; [5] | Fibroblast; [6]
1: U2OS; [2] | U2OS; [3] | U2OS; [9] | U2OS; [7] | HEK-293T; [8] | HEK-293T; [2] | HEK-293T; [4] | Fibroblast; [1] | Fibroblast; [3] | Fibroblast; [7]

CO[C@@H](C)c1c(Nc2ccc([C@H](N(C)C(=O)C3CCS(=O)(=O)CC3)C(F)(F)F)cc2)cnc2cc(Cl)nn12 [NVS-MALT1]
1: U2OS; [2] | U2OS; [3] | U2OS; [5] | U2OS; [6] | HEK-293T; [10] | Fibroblast; [2] | Fibroblast; [4] | Fibroblast; [9] | Fibroblast; [7]
0: U2OS; [8] | U2OS; [1] | U2OS; [4] | HEK-293T; [8] | HEK-293T; [2] | HEK-293T; [3] | HEK-293T; [5] | HEK-293T; [6] | Fibroblast; [10] | Fibroblast; [1] | Fibroblast; [3] | Fibroblast; [5] | Fibroblast; [6]

C[C@H](N)COC(=O)[C@@H](CCCCN)NC(=O)Cc1c(-c2ccc3ccccc3c2)[nH]c2c1ccc1ccccc12
1: U2OS; [3] | U2OS; [5] | U2OS; [6] | HEK-293T; [1] | HEK-293T; [3] | HEK-293T; [5] | HEK-293T; [6] | Fibroblast; [3]
0: U2OS; [10] | U2OS; [2] | HEK-293T; [8] | HEK-293T; [2] | HEK-293T; [4] | HEK-293T; [9] | HEK-293T; [7] | Fibroblast; [8] | Fibroblast; [1] | Fibroblast; [4] | Fibroblast; [5] | Fibroblast; [6]

O=C(Cc1ccccc1)Nc1nc2ccc(Cl)cc2c2nc(-c3ccco3)nn12
0: U2OS; [8] | U2OS; [2] | U2OS; [4] | U2OS; [9] | U2OS; [7] | HEK-293T; [10] | HEK-293T; [1] | HEK-293T; [3] | HEK-293T; [5] | HEK-293T; [6] | Fibroblast; [8] | Fibroblast; [2] | Fibroblast; [3] | Fibroblast; [5] | Fibroblast; [6]
1: U2OS; [3] | U2OS; [5] | U2OS; [6] | HEK-293T; [8] | HEK-293T; [2] | Fibroblast; [10] | Fibroblast; [4] | Fibroblast; [9] | Fibroblast; [7]

O=C(NCC(=O)N1CCCC1)Nc1ccc2cnccc2c1
1: U2OS; [1] | U2OS; [3] | U2OS; [5] | U2OS; [6] | HEK-293T; [9] | HEK-293T; [6] | Fibroblast; [4] | Fibroblast; [9] | Fibroblast; [7]
0: U2OS; [8] | U2OS; [2] | U2OS; [4] | HEK-293T; [8] | HEK-293T; [2] | HEK-293T; [4] | HEK-293T; [7] | Fibroblast; [10] | Fibroblast; [1] | Fibroblast; [3] | Fibroblast; [5] | Fibroblast; [6]

COc1ccc(S(=O)(=O)N2c3ccc(Cl)cc3[C@](O)(c3ccccc3Cl)[C@@H]2C(=O)N2CCC[C@H]2C(N)=O)cc1OC [RELCOVAPTAN]
1: U2OS; [1] | U2OS; [7] | HEK-293T; [8] | Fibroblast; [10]
0: U2OS; [2] | U2OS; [3] | U2OS; [5] | U2OS; [6] | HEK-293T; [10] | HEK-293T; [1] | HEK-293T; [3] | HEK-293T; [5] | HEK-293T; [6] | Fibroblast; [8] | Fibroblast; [1] | Fibroblast; [3] | Fibroblast; [5] | Fibroblast; [6]

Cc1ccccc1C(=O)Nc1ccc(C(=O)N2CCCC(O)c3cc(Cl)ccc32)c(C)c1 (stereo not drawn) [TOLVAPTAN]
0: U2OS; [1] | U2OS; [3] | U2OS; [5] | HEK-293T; [10] | HEK-293T; [1] | HEK-293T; [3] | HEK-293T; [5] | HEK-293T; [6] | Fibroblast; [1] | Fibroblast; [4] | Fibroblast; [9] | Fibroblast; [7]
1: U2OS; [6] | HEK-293T; [8] | Fibroblast; [8] | Fibroblast; [3] | Fibroblast; [5] | Fibroblast; [6]

O=C(NCc1ncc(C(F)(F)F)cc1Cl)c1ccc2c(c1)C1(CCS(=O)(=O)CC1)[C@@H](C1CC1)N2S(=O)(=O)c1ccc(F)cc1 [BAY-786]
0: U2OS; [8] | U2OS; [2] | U2OS; [9] | U2OS; [6] | HEK-293T; [8] | HEK-293T; [3] | HEK-293T; [5] | HEK-293T; [6] | Fibroblast; [8]
1: U2OS; [3] | U2OS; [5] | HEK-293T; [1] | HEK-293T; [4] | HEK-293T; [9] | HEK-293T; [7] | Fibroblast; [10] | Fibroblast; [1] | Fibroblast; [3] | Fibroblast; [5] | Fibroblast; [6]

CC1CCN(CC[C@H]2CCCN2S(=O)(=O)c2cccc(O)c2)CC1.Cl
0: U2OS; [8] | HEK-293T; [8] | HEK-293T; [4] | Fibroblast; [8]
1: U2OS; [2] | U2OS; [3] | U2OS; [5] | U2OS; [6] | HEK-293T; [1] | HEK-293T; [3] | HEK-293T; [5] | HEK-293T; [6] | Fibroblast; [1] | Fibroblast; [4] | Fibroblast; [5] | Fibroblast; [6]
